Experimental data taken from ChEMBL document CHEMBL1201862, “PubChem BioAssay data set” (2004).
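Interpolation was linear, between the two tested concentrations surrounding the appropriate level; five concentrations were tested over 48 hours in 96-well plates. GI50 marks 50% less growth.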 Activity calls are given as the source filed them. No stated cut-off is given here; in the data, active = GI50 up to about 1.1 µM and inactive = higher.

Tests used:
Assay in all cases: growth of human tumour cells (NCI), 48 h
ACHN = system: ACHN
CCRF-CEM = system: CCRF-CEM
COLO 205 = system: COLO 205
DU-145 = system: DU-145
EKVX = system: EKVX
HCT-15 = system: HCT-15
IGROV-1 = system: IGROV-1
K562 = system: K562
MDA-MB-231 = system: MDA-MB-231
MDA-N = system: MDA-N
MOLT-4 = system: MOLT-4
NCI-H460 = system: NCI-H460
PC-3 = system: PC-3
SK-MEL-2 = system: SK-MEL-2
SK-MEL-5 = system: SK-MEL-5
SR = system: SR
T47D = system: T47D
TK-10 = system: TK-10
UACC-257 = system: UACC-257
BT-549 = system: BT-549

SMILES | GI50 (ACHN) | GI50 (CCRF-CEM) | GI50 (COLO 205) | GI50 (DU-145) | GI50 (EKVX) | GI50 (HCT-15) [µM] | GI50 (IGROV-1) | GI50 (K562) | GI50 (MDA-MB-231) | GI50 (MDA-N) | GI50 (MOLT-4) | GI50 (NCI-H460) | GI50 (PC-3) | GI50 (SK-MEL-2) | GI50 (SK-MEL-5) | GI50 (SR) | GI50 (T47D) | GI50 (TK-10) | GI50 (UACC-257) | GI50 (BT-549)
Oc1cc(-c2cccc(OC(F)(F)F)c2)nc2ccc(N3CCCC3)cc12 | 0.000622 µM (active) | 0.00012 µM (active) | 0.00303 µM (active) | 0.000316 µM (active) | 0.031 µM (active) | 0.0004 | 0.00131 µM (active) | < 0.0001 µM (active) | 0.00156 µM (active) | < 0.0001 µM (active) | 0.000335 µM (active) | 0.0025 µM (active) | 0.000318 µM (active) | 0.000127 µM (active) | 0.000209 µM (active) | < 0.0001 µM (active) | 26.3 µM (inactive) | 0.00457 µM (active) | < 0.0001 µM (active) | –
O=C(O)CCSc1nnc(COc2ccc(Cl)cc2)n1-c1ccccc1 | > 100 µM (inactive) | 95.3 µM (inactive) | > 100 µM (inactive) | > 100 µM (inactive) | > 100 µM (inactive) | > 100 | > 100 µM (inactive) | > 100 µM (inactive) | > 100 µM (inactive) | > 100 µM (inactive) | > 100 µM (inactive) | > 100 µM (inactive) | > 100 µM (inactive) | > 100 µM (inactive) | – | – | > 100 µM (inactive) | > 100 µM (inactive) | > 100 µM (inactive) | –
Clc1ccc2[nH]c(CC3CCCC3)nc2c1 | 17.1 µM (inactive) | 26.2 µM (inactive) | 14.2 µM (inactive) | 20.9 µM (inactive) | 17.5 µM (inactive) | 6.87 | 4.29 µM (inactive) | 3.14 µM (inactive) | 17.7 µM (inactive) | 10 µM (inactive) | 11 µM (inactive) | 17.6 µM (inactive) | 20.1 µM (inactive) | 17.9 µM (inactive) | 11 µM (inactive) | 2.45 µM (inactive) | 17.9 µM (inactive) | 28.5 µM (inactive) | 88.1 µM (inactive) | –
C[C@H](C1CC2(C)OC2(C)C(=O)O1)[C@H]1CC[C@H]2[C@@H]3[C@@H]4O[C@@H]4[C@@]4(O)CC=CC(=O)[C@]4(C)[C@H]3CC[C@]12C (stereo partly specified) | > 50 µM (inactive) | – | > 50 µM (inactive) | 16.9 µM (inactive) | > 50 µM (inactive) | > 50 | > 50 µM (inactive) | > 50 µM (inactive) | > 50 µM (inactive) | > 50 µM (inactive) | > 50 µM (inactive) | > 50 µM (inactive) | > 50 µM (inactive) | > 50 µM (inactive) | > 50 µM (inactive) | – | 24.9 µM (inactive) | > 50 µM (inactive) | > 50 µM (inactive) | > 50 µM (inactive)
O=C(Cc1ccc([N+](=O)[O-])cc1)OCC#CCOC(=O)Cc1ccc([N+](=O)[O-])cc1 | > 10 µM (inactive) | > 10 µM (inactive) | – | – | > 10 µM (inactive) | > 10 | > 10 µM (inactive) | > 10 µM (inactive) | > 10 µM (inactive) | > 10 µM (inactive) | > 10 µM (inactive) | > 10 µM (inactive) | > 10 µM (inactive) | > 10 µM (inactive) | > 10 µM (inactive) | > 10 µM (inactive) | > 10 µM (inactive) | > 10 µM (inactive) | > 10 µM (inactive) | > 10 µM (inactive)
Cc1ccc(S(=O)(=O)Nn2c(O)c(C#N)c(-c3ccc(N(C)C)cc3)c(C#N)c2=O)cc1 | > 50 µM (inactive) | > 50 µM (inactive) | > 50 µM (inactive) | – | > 50 µM (inactive) | > 50 | > 50 µM (inactive) | > 50 µM (inactive) | > 50 µM (inactive) | > 50 µM (inactive) | > 50 µM (inactive) | > 50 µM (inactive) | > 50 µM (inactive) | > 50 µM (inactive) | 26.2 µM (inactive) | – | – | > 50 µM (inactive) | > 50 µM (inactive) | > 50 µM (inactive)
C[C@@]1(O)CC[C@]2(C)C3CCCC3[C@H]12 (stereo partly specified) | > 100 µM (inactive) | > 100 µM (inactive) | > 100 µM (inactive) | – | > 100 µM (inactive) | > 100 | > 100 µM (inactive) | > 100 µM (inactive) | – | – | > 100 µM (inactive) | > 100 µM (inactive) | – | > 100 µM (inactive) | > 100 µM (inactive) | > 100 µM (inactive) | – | > 100 µM (inactive) | > 100 µM (inactive) | –
O=[N+]([O-])c1ccc2c(c1)nc1n2C(c2c(F)cccc2F)SC1 (stereo unspecified) | > 100 µM (inactive) | > 100 µM (inactive) | > 100 µM (inactive) | > 100 µM (inactive) | > 100 µM (inactive) | > 100 | > 100 µM (inactive) | > 100 µM (inactive) | > 100 µM (inactive) | > 100 µM (inactive) | > 100 µM (inactive) | > 100 µM (inactive) | > 100 µM (inactive) | > 100 µM (inactive) | > 100 µM (inactive) | > 100 µM (inactive) | > 100 µM (inactive) | > 100 µM (inactive) | > 100 µM (inactive) | –
CC1=C(C(=O)CC(=O)C(=O)Nc2ccccc2C)Sc2ccccc2N1 | > 100 µM (inactive) | > 57.1 µM (inactive) | > 42.7 µM (inactive) | – | > 100 µM (inactive) | > 100 | > 100 µM (inactive) | > 56.9 µM (inactive) | – | – | > 100 µM (inactive) | > 40.4 µM (inactive) | – | > 100 µM (inactive) | > 100 µM (inactive) | > 100 µM (inactive) | – | > 100 µM (inactive) | > 100 µM (inactive) | –
Cc1ccc2oc3c(c(Br)c(Br)n3C)c(=O)c2c1 | 16.7 µM (inactive) | > 100 µM (inactive) | > 100 µM (inactive) | 78.9 µM (inactive) | 10.4 µM (inactive) | > 100 | 10.5 µM (inactive) | > 100 µM (inactive) | 20.3 µM (inactive) | – | > 100 µM (inactive) | – | 35 µM (inactive) | 25.8 µM (inactive) | 27.7 µM (inactive) | – | 41.5 µM (inactive) | 19 µM (inactive) | 65.5 µM (inactive) | > 100 µM (inactive)
COc1c(-c2nc3ccc(N4CCN(C)CC4)nc3[nH]2)cc(OC)c2c1nc(COC(C)=O)n2C | > 100 µM (inactive) | – | 92.7 µM (inactive) | 22.6 µM (inactive) | > 100 µM (inactive) | > 100 | > 100 µM (inactive) | > 100 µM (inactive) | 51.3 µM (inactive) | > 100 µM (inactive) | > 100 µM (inactive) | – | 94.8 µM (inactive) | 33 µM (inactive) | > 100 µM (inactive) | – | > 100 µM (inactive) | < 0.01 µM (active) | 45.3 µM (inactive) | > 100 µM (inactive)
O=C(c1ccccc1)C1(Br)S(=O)(=O)OCCOS1(=O)=O | > 100 µM (inactive) | > 100 µM (inactive) | > 100 µM (inactive) | – | > 100 µM (inactive) | > 100 | > 100 µM (inactive) | > 100 µM (inactive) | – | – | > 100 µM (inactive) | > 100 µM (inactive) | – | > 100 µM (inactive) | > 100 µM (inactive) | > 100 µM (inactive) | – | > 100 µM (inactive) | > 100 µM (inactive) | –
Clc1ccc(-c2nnc(-c3c(Cl)c(Cl)c(Cl)c(Cl)c3-c3nc4ccccc4[nH]3)o2)cc1 | 97.3 µM (inactive) | 59.4 µM (inactive) | 52.2 µM (inactive) | 78.2 µM (inactive) | 54.3 µM (inactive) | 55.3 | 30.2 µM (inactive) | 34.3 µM (inactive) | – | 53.5 µM (inactive) | 27.2 µM (inactive) | 44 µM (inactive) | 97.5 µM (inactive) | > 100 µM (inactive) | 40.4 µM (inactive) | 34.3 µM (inactive) | 21 µM (inactive) | – | > 100 µM (inactive) | 70.1 µM (inactive)
CC[C@]1(Cc2ccc(OC)c(OC)c2)[C@@H]2C[C@@H](C(=O)OC)ON2O[C@H](OC2CCCC2(c2ccccc2)c2ccccc2)[C@@H]1OC(C)=O (stereo partly specified) | > 100 µM (inactive) | > 100 µM (inactive) | > 100 µM (inactive) | > 100 µM (inactive) | > 100 µM (inactive) | > 100 | > 100 µM (inactive) | > 100 µM (inactive) | > 100 µM (inactive) | – | > 100 µM (inactive) | > 100 µM (inactive) | – | > 100 µM (inactive) | > 100 µM (inactive) | 66.7 µM (inactive) | > 100 µM (inactive) | > 100 µM (inactive) | > 100 µM (inactive) | > 100 µM (inactive)
COc1cc2oc(-c3ccc(O)cc3)cc(=O)c2c(OC)c1O | 32.7 µM (inactive) | > 100 µM (inactive) | > 100 µM (inactive) | 94.8 µM (inactive) | > 100 µM (inactive) | 92.7 | 57.3 µM (inactive) | 60.5 µM (inactive) | 46.9 µM (inactive) | > 100 µM (inactive) | > 100 µM (inactive) | 45.7 µM (inactive) | – | > 100 µM (inactive) | 49.4 µM (inactive) | – | 6.41 µM (inactive) | 51.4 µM (inactive) | > 100 µM (inactive) | 67.9 µM (inactive)
CCn1cc(C(=O)O)c(=O)c2ccc(C)nc21 [NALIDIXIC ACID] | > 100 µM (inactive) | > 100 µM (inactive) | > 100 µM (inactive) | > 100 µM (inactive) | > 100 µM (inactive) | > 100 | > 100 µM (inactive) | > 100 µM (inactive) | > 100 µM (inactive) | > 100 µM (inactive) | > 100 µM (inactive) | > 100 µM (inactive) | > 100 µM (inactive) | > 100 µM (inactive) | > 100 µM (inactive) | > 100 µM (inactive) | > 100 µM (inactive) | > 100 µM (inactive) | > 100 µM (inactive) | –
